{"source": "patent US10226493B2", "about": "“Coriolus versicolor extracts, methods of preparation and uses thereof” (priority 2010, dated 2019)", "system": "herpes simplex virus (HSV)", "assay": "HSV infection in mice, disease severity by hind-limb paralysis score", "format": "in vivo", "conditions": "male BALB/c mice, ip once a day; MPUB-EtOH 250 mg/kg, acyclovir 10 mg/kg; versus DMSO-treated controls; FIG. 10", "method": "To investigate the antiviral effects of C. versicolor extract in vivo, 3-week-old male BALB/c mice (15 mice per group) were administrated intraperitoneally (ip) with dimethyl sulfoxide (DMSO) (solvent for MPUB-EtOH) or MPUB-EtOH (250 mg/kg) once a day at 24 hr intervals for […].\nBriefly, the mice were infected with inoculation of HSV ip at 1×10^5 TCID50/ml at day 0. DMSO, MPUB-EtOH or acyclovir (10 mg/kg) were administrated ip once a day at 24 hr intervals for 5 days starting 1 hr after infection. The mice were inspected daily and the disease severity was measured by hind-limb(s) paralysis based on the following scoring system: 0, no paralysis; 1, obvious difficulty in movement of hind limbs; 2, one hind limb incomplete paralysis; 3, one hind limb complete paralysis; 4, both hind limbs incomplete paralysis; 5, both hind limbs complete paralysis."}
{"smiles": "Nc1nc2c(ncn2COCCO)c(=O)[nH]1", "note": "[acyclovir]", "values": [{"measurement": "severity of HSV infection (hind-limb paralysis score 0-5)", "result": "comparable"}]}
